From patent US5840721A, “Imidazole derivatives as MDR modulators” (Ontogen Corporation, priority 1997, dated 1998)

The compounds below were run on CEM/VLB1000 cell line (assay: Cytotoxicity potentiation: enhancement of vinblastine cytotoxicity in MDR cell line (alamar blue)). Conditions: Homo sapiens, midpoint of minimum and maximum cytotoxicity induced by 3-5 μg/mL vinblastine and compound, 48 hours incubation, alamar blue 24 hours, read-out: Cytotocicity Potentiation (EC50).
Type: cell-based, human
Description: Multidrug-resistant cell lines are easily obtainable for in vitro determination of drug sensitization by compounds of the present invention. In vitro potentiation of antineoplastic cytotoxicity by the imidazole derivatives of the present invention was measured in both CEM/VLB1000 and SK/VLB1000 cell lines. The multidrug resistant cell lines were obtained from Dr. Victor Ling, Ontario Cancer Institute, Toronto, Canada. The CEM/VLB 1000 cell line was maintained as a suspension in minimum essential medium supplemented with 10% fetal bovine serum in a humidied atmosphere of 95% air and 5% CO2 while the SK/VLB 1000 cell line was maintained as adherent cells using the identical medium conditions as the CEM cells. The CEM/VLB 1000 cells were seeded at a density of 5×10^4 cells/well in a 96 well microtiter plate while the SK/VLB 1000 cell line was seeded at a density of 2,500 cells/well after trypsinization.

Compound | EC50 [nM]
CCOC/C=C/c1ccc(-c2nc(-c3ccc(OCC)cc3)c(-c3ccc(OCC)cc3)[nH]2)cc1 [Example 103, 2-[4-(3-ethoxy-trans-1-propen-1-yl)phenyl]-4,5-bis (4-diethoxyphenyl) imidazole] | 240
CCOC/C=C/c1ccc(-c2nc(-c3ccc(NC(C)C)cc3)c(-c3ccc(F)cc3)[nH]2)cc1 [Example 121, 2-[4-(3-ethoxy-trans-1-propen-1-yl)phenyl]-4-(4-fluorophenyl)-5-(4-N-isopropylaminophenyl) imidazole] | 120
CCOC/C=C/c1ccc(-c2nc(-c3ccc(N(CC)CC)cc3)c(-c3ccc(N(CC)CC)cc3)[nH]2)cc1 [Example 86, 2-[4-(3-ethoxy-trans-1-propen-1-yl)phenyl]-4,5-bis (4-N,N-diethylaminophenyl) imidazole] | 260
COCCOC/C=C/c1ccc(-c2nc(-c3ccc(N(C)C)cc3)c(-c3ccc(N(C)C)cc3)[nH]2)cc1 [Example 84, 2-{4-[3-(2-methoxy-ethoxy)-trans-1-propen-1-yl]phenyl}-4,5-bis (4-N,N-dimethylaminophenyl) imidazole] | 90
CNc1ccc(-c2nc(-c3ccc(/C=C/C(=O)OC)cc3)[nH]c2-c2ccc(N3CCCC3)cc2)cc1 [Example 67, 2-(trans-2-methoxycarbonyl-ethenylphenyl)-4-(4-N-methylaminophenyl)5-(4-pyrrolidinophenyl) imidazole] | 98
CCN(CC)Cc1ccc(-c2[nH]c(-c3ccc(/C=C/C(=O)OC)cc3)nc2-c2ccc(C)cc2)cc1 [Example 99, 2-[4-trans-(2-methoxycarbonyl-ethenyl)phenyl]-4-(p-tolyl)-5-(4-N,N-diethylaminomethylphenyl) imidazole] | 290
CN(C)c1ccc(-c2nc(-c3ccc(/C=C/c4nc5ccccc5s4)cc3)[nH]c2-c2ccc(N(C)C)cc2)cc1 [Example 62, 2-[trans-2-(2-benzthiazolyl)ethenylphenyl]-4,5-bis (4-N,N-dimethylaminophenyl) imidazole] | 1030
CNc1ccc(-c2[nH]c(-c3ccc(/C=C/c4nc5ccccc5o4)cc3)nc2-c2ccc(N(C)C)cc2)cc1 [Example 57, 2-[trans-2-(2-benzoxazolyl)ethenylphenyl]-4-(4-N,N-dimethylaminophenyl)-5-(4-N-methylaminophenyl) imidazole] | 210
CC(=O)/C=C/c1ccc(-c2nc(-c3ccc(N(C)C)cc3)c(-c3ccc(N(C)C)cc3)[nH]2)cc1 [Example 116, 2-[4-(3-methylcarbonyl-trans-1-propen-1-yl)phenyl]-4,5-bis (4-N,N-dimethylaminophenyl) imidazole] | 230
CCN(CC)Cc1ccc(-c2nc(-c3ccc(/C=C/C(=O)OC)cc3)[nH]c2-c2ccc(CN(CC)CC)cc2)cc1 [Example 100, 2-[4-trans-(2-methoxycarbonyl-ethenyl)phenyl]-4,5-bis (4-N,N-diethylaminomethylphenyl) imidazole] | 3400
CCOC/C=C/c1ccc(-c2nc(-c3ccc(N4CCOCC4)cc3)c[nH]2)cc1 [Example 125, 2-[4-(3-ethoxy-trans-1-propen-1-yl)phenyl]-4-(4-N-morpholinophenyl) imidazole] | 370
CCOC(=O)c1cc(-c2ccc(-c3nc(-c4ccc(N(C)C)cc4)c(-c4ccc(N(C)C)cc4)[nH]3)cc2)no1 [Example 98, 2-[4-(5-ethylcarboxyisoxazol-3-yl)-phenyl]-4,5-bis (4-N,N-dimethylamainophenyl) imidazole] | 600
CCOC/C=C/c1ccc(-c2nc(-c3ccc(NC(C)C)cc3)c[nH]2)cc1 [Example 123, 2-[4-(3-ethoxy-trans-1-propen-1-yl)phenyl]-4-(4-N-isopropylphenyl) imidazole] | 340
CCOC/C=C/c1ccc(-c2nc(-c3ccc(NC)cc3)c(-c3ccc(N4CCOCC4)cc3)[nH]2)cc1 [Example 94, 2-[4-(3-ethoxy-trans-1-propen-1-yl)phenyl]-4-(4-N-methylaminophenyl) -5(4-N-morpholinophenyl) imidazole] | 250
CNc1ccc(-c2[nH]c(-c3ccc(/C=C/C(=O)OC)cc3)nc2-c2ccc(N(CCOC)CCOC)cc2)cc1 [Example 69, 2-(trans-2-methoxycarbonyl-ethenylphenyl)-4-[4-N,N-di(2methoxyethyl)aminophenyl]-5-(4-N-methylaminophenyl) imidazole] | 330
CN(C)C/C=C/c1ccc(-c2nc(-c3ccc(N(C)C)cc3)c(-c3ccc(N(C)C)cc3)[nH]2)cc1 [Example 83, 2-[4-(3-N,N-dimethylamino-trans-1-propen-1-yl)phenyl]-4,5-bis (4-N,N-dimethylaminophenyl) imidazole] | 1300

Compound | EC50 [nM]
COC(=O)/C=C/c1ccc(-c2nc(-c3ccc(N4CCOCC4)cc3)c(-c3ccc(N4CCOCC4)cc3)[nH]2)cc1 [Example 71, 2-(trans-2-methoxycarbonyl-ethenylphenyl)-4,5-bis (4-N-morpholinophenyl) imidazole] | 370
CCOC/C=C/c1ccc(-c2nc(-c3ccc(NC(C)C)cc3)c(-c3ccc(NC(C)C)cc3)[nH]2)cc1 [Example 119, 2-[4-(3-ethoxy-trans-1-propen-1-yl)phenyl]-4,5-bis-(4-N-isopropylaminophenyl) imidazole] | 67
CCOC/C=C/c1ccc(-c2nc3cc(OC)ccc3[nH]2)cc1 [Example 118] | 1000
COC(=O)[C@@H]1C[C@H]1c1ccc(-c2nc(-c3ccc(N(C)C)cc3)c(-c3ccc(N(C)C)cc3)[nH]2)cc1 (relative stereo) [Example 101] | 200
CCOC/C=C/c1ccc(-c2nc(-c3ccc(N(C)C)cc3)c(-c3ccc(N4CCCC4)cc3)[nH]2)cc1 [Example 90, 2-[4-(3-ethoxy-trans-1-propen-1-yl)phenyl]-4-(4-N-dimethylaminophenyl)-5-(4-pyrrolidinophenyl) imidazole] | 120
CCOC/C=C/c1ccc(-c2nc(-c3ccc(N4CCOCC4)cc3)c(C)[nH]2)cc1 [Example 127, 2-[4-(3-ethoxy-trans-1-propen-1-yl)phenyl]-4-(4-N-morpholinophenyl)-5methyl-imidazole] | 330
CCOC/C=C/c1ccc(-c2nc(-c3ccc(OC(C)C)cc3)c(-c3ccc(OC(C)C)cc3)n2CCCn2ccnc2)cc1 [Example 107, 1-(3-imidazole-1-yl-propyl)-2-[4-(3-ethoxy-trans-1-propen-1-yl)phenyl]-4,5bis (4-diisopropyloxyphenyl) imidazole] | 490
COCCNc1ccc(-c2[nH]c(-c3ccc(/C=C/C#N)cc3)nc2-c2ccc(N(C)C)cc2)cc1 [Example 65] | 250
COCCNc1ccc(-c2[nH]c(-c3ccc(/C=C/c4nc5ccccc5o4)cc3)nc2-c2ccc(N(C)C)cc2)cc1 [Example 61, 2-[trans-2-(2-benzoxazolyl)ethenylphenyl]-4-(4-N,N-dimethylaminophenyl)-5-[4-(2-methoxyethylamino)phenyl] imidazole] | 160
CN(C)c1ccc(-c2nc(-c3ccc(/C=C/c4nc5ccccc5o4)cc3)[nH]c2-c2ccc(N(C)C)cc2)cc1 [Example 56, 2-[trans-2-(2-benzoxazolyl)ethenylphenyl]-4,5-bis (4-N,N-dimethylaminophenyl) imidazole] | 550
CCN(CC)c1ccc(-c2nc(-c3ccc(/C=C/c4nc5ccccc5o4)cc3)[nH]c2-c2ccc(NC)cc2)cc1 [Example 58, 2-[trans-2-(2-benzoxazolyl)ethenylphenyl]-4-(4-N,N-diethylaminophenyl)-5-(4-N-methylaminophenyl) imidazole] | 470
CCOC/C=C/c1ccc(-c2nc(-c3ccc(OCC)cc3)c(-c3ccc(OCC)cc3)n2CCCn2ccnc2)cc1 [Example 106, 1-(3-imidazole-1-yl-propyl)-2-[4-(3-ethoxy-trans-1-propen-1-yl)phenyl]-4,5bis (4-diethoxyphenyl) imidazole] | 380
CCOC/C=C/c1ccc(-c2nc(-c3ccc(N(C)C)cc3)c(-c3ccc(NC)cc3)[nH]2)cc1 [Example 76, 2-[4-(3-ethoxy-trans-1-propen-1-yl)phenyl]-4-(4-N-dimethylaminophenyl)-5-(4-N-methylaminophenyl) imnidazole] | 110
CCOC/C=C/c1ccc(-c2nc(-c3ccc(OC)cc3)c(-c3ccc(OC)cc3)n2CCCn2ccnc2)cc1 [Example 105, 1-(3-imidazole-1-yl-propyl)-2-[4-(3-ethoxy-trans-1-propen-1-yl)phenyl]-4,5bis (4-dimethoxyphenyl) imidazole] | 650
CCOC/C=C/c1ccc(-c2nc(-c3ccc(N4CCN(CC)CC4)cc3)c[nH]2)cc1 [Example 126, 2-[4-(3-ethoxy-trans-1-propen-1-yl)phenyl]-4-[4-N-(N'-ethyl)piperizanophenyl) imidazole] | 710

Same assay, conditions: midpoint of minimum and maximum cytotoxicity induced by 3-5 μg/mL vinblastine and compound, 48 hours incubation, alamar blue 24 hours, read-out: Cytotocicity Potentiation (EC50)

Compound | EC50 [nM]
CNc1ccc(-c2[nH]c(-c3ccc(/C=C/COc4ccc(OC)c(OC)c4)cc3)nc2-c2ccc(N(C)C)cc2)cc1 [Example 79, 2-{4-[3-(3,4-dimethoxy-phenoxy)-trans-1-propen-1-yl]phenyl}-4-(4-N-dimethylaminophenyl)-5-(4-N-methylaminopheny) imidazole] | 1210
CCN(CC)C/C=C/c1ccc(-c2nc(-c3ccc(N(C)C)cc3)c(-c3ccc(N(C)C)cc3)[nH]2)cc1 [Example 80, 2-[4-(3-N,N-diethylamino-trans-1-propen-1-yl)phenyl]-4,5-bis (4-N,N-dimethylaminophenyl) imidazole] | 880
